Counter-ions that a name gives are not always drawn.
Columns and labels:
[1] = system: HCT-116 cell line; test: Inhibition of cell growth, MTT tetrazolium salt assay; assay type: cell-based; details: for IC50: Homo sapiens, HCT-116, 120 h, MTT, three to five days
Procedure, shortened: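 HCT-116 cells in McCoy's 5A were dosed 4 h after plating with compounds in 0.5% DMSO and grown 3–5 days at 37 °C. Then 0.2 mg/mL MTT was added for 4 h and formazan absorbance read at 540 nm. IC50/IC90 came from semi-log plots against DMSO-only controls.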

[2] = target: T1, human CDK4/cyclin D3 (Homo sapiens, UniProt P11802); test: Inhibition of CDK4/cyclin D retinoblastoma kinase activity (Ki; % inhibition); assay type: biochemical; details: for Ki: apparent Ki, CDK4/cyclin D3, Rb substrate
T1 construct: made in house; host or cells: insect cells co-infected with baculovirus vectors
Procedure, shortened: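 Radiometric filter-binding read-out: Rb residues 386-928 phosphorylated by 5 nM CDK4/cyclin D3(1-264) from baculovirus-infected insect cells, 25 μM ATP, HEPES pH 7.4, 30 °C. Run 20 min, or 60 min for tight-binding inhibitors. Screening at 30 nM theoretical compound; apparent Ki by competitive-inhibition fitting.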

[3] = target: T2, CDK2/cyclin A (Homo sapiens, UniProt P24941); test: Inhibition of CDK2/cyclin A retinoblastoma kinase activity (Ki; % inhibition); assay type: biochemical; details: for Ki: apparent Ki, CDK2/cyclin A, Rb substrate
T2 construct: made in house; host or cells: CDK2: insect cells (baculovirus); cyclin A: E. coli
Procedure, shortened: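 Apparent Ki values came from fitting concentration-dependent activity data to competitive (or competitive tight-binding) models, and % inhibition from single 30 nM screens of library compounds. Activity was measured as ³²P/³³P incorporation from 25 μM ATP into an Rb substrate by 10 or 19 nM CDK2/delta cyclin A at 30 °C over 60–75 min, pH 7.4.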

[4] = HCT-116 cells, 0.25 μM compound

T1 sequence (P11802 whole entry): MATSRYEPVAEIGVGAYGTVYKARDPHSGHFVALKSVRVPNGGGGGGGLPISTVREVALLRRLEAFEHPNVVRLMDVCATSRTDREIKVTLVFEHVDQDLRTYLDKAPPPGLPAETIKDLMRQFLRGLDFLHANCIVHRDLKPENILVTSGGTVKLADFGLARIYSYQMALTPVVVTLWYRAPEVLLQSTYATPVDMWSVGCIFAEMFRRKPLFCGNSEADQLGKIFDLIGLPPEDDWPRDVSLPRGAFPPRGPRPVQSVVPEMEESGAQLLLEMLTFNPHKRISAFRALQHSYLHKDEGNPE
T1 sequence (P30281 1-264 partner limits assumed): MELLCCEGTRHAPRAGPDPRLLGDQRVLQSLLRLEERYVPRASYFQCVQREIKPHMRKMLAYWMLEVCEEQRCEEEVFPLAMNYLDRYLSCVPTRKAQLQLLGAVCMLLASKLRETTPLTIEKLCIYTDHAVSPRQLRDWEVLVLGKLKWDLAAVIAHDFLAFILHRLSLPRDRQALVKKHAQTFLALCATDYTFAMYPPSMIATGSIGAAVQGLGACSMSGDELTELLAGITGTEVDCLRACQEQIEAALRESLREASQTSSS

SMILES | HCT-116 % Inhibition at 0.25 μM ([1]; HCT-116, at 0.25 μM) | CDK4 % Inhibition at 0.03 μM ([2]; at 0.03 μM) | CDK2 % Inhibition at 0.03 μM ([3]; at 0.03 μM) | HCT-116 % Inhibition at 0.1 μM ([1]; HCT-116 cells, 0.1 μM compound) | HCT-116 % Inhibition at 0.25 μM [1, 4] | CDK4 % Inhibition at 0.03 μM ([2]; 0.03 μM compound) | CDK2 % Inhibition at 0.03 μM ([3]; 0.03 μM compound) | other results
Nc1nc(Nc2ccc(C(=O)NCCc3ccncc3)cc2)sc1C(=O)c1c(F)cccc1F [Example A29, 4-[4-Amino-5-(2,6-difluoro-benzoyl)-thiazol-2-ylamino]-N-(2-pyridin-4-yl-ethyl)-benzamide] |  |  |  |  |  |  |  | IC50 [1]: 220 nM; Ki [2]: 26 nM; Ki [3]: 52 nM
COC(=O)c1ccccc1NC(=O)c1ccc(Nc2nc(N)c(C(=O)c3c(F)cccc3F)s2)cc1 [Example G39] | 65% | −1% | −4% |  |  |  |  | 
CN(C)CCCCCCNC(=O)c1ccc(Nc2nc(N)c(C(=O)c3c(F)cccc3F)s2)cc1 [Example G99] | 62% | 23% | −16% |  |  |  |  | HCT-116 % Inhibition at 0.1 μM ([1]; HCT-116, at 0.1 μM): 24%
CNC(C)(C)CNC(=O)c1ccc(Nc2nc(N)c(C(=O)c3c(F)cccc3F)s2)cc1 [Example A18, 4-{4-Amino-5-[1-(2,6-difluoro-phenyl)-methanoyl]-thiazol-2-ylamino}-N-(2-methyl-2-methylamino-propyl)-benzamide Acetic Acid Salt] |  |  |  |  |  |  |  | IC50 [1]: 920 nM; Ki [2]: 6 nM; Ki [3]: 190 nM
CCCN(C(=O)c1ccc(Nc2nc(N)c(C(=O)c3c(F)cccc3F)s2)cc1)C(C)CC (stereo not drawn) [Example G356] |  |  |  | 27% | 50% | 5% | −16% | 
CC[C@H](C)[C@@H](CO)NC(=O)c1ccc(Nc2nc(N)c(C(=O)c3c(F)cccc3F)s2)cc1 [Example G327] |  |  |  | 8% | 55% | 11% | −7% | 
Cc1ccc(NC(=O)c2ccc(Nc3nc(N)c(C(=O)c4c(F)cccc4F)s3)cc2)c(Cl)c1 [Example G44] | 72% | 14% | 8% |  |  |  |  | 
C=C(C)CN(C)C(=O)c1ccc(Nc2nc(N)c(C(=O)c3c(F)cccc3F)s2)cc1 [Example G182] | 52% | 6% | −2% |  |  |  |  | HCT-116 % Inhibition at 0.1 μM ([1]; HCT-116, at 0.1 μM): 23%
CCOC(CCCNC(=O)c1ccc(Nc2nc(N)c(C(=O)c3c(F)cccc3F)s2)cc1)OCC [Example G392] |  |  |  | 8% | 49% | −2% | 12% | 
Nc1nc(Nc2ccc(C(=O)NCCc3ccccc3)cc2)sc1C(=O)c1c(F)cccc1F [Example G91] | 68% | 9% | −19% |  |  |  |  | HCT-116 % Inhibition at 0.1 μM ([1]; HCT-116, at 0.1 μM): 34%
Nc1nc(Nc2ccc(C(=O)Nc3cccc(OC(F)(F)F)c3)cc2)sc1C(=O)c1c(F)cccc1F [Example G292] |  |  |  | 0% | 60% | −15% | −31% | 
Nc1nc(Nc2ccc(C(=O)Nc3ccc(O)cc3)cc2)sc1C(=O)c1c(F)cccc1F [Example G74] | 78% | 18% | 23% |  |  |  |  | 
Nc1nc(Nc2ccc(C(=O)NC3CCC(O)CC3)cc2)sc1C(=O)c1c(F)cccc1F (stereo not drawn) [Example G346] |  |  |  | 15% | 52% | 11% | 11% | 
COc1cc(Nc2nc(N)c(C(=O)c3c(F)cccc3F)s2)ccc1C(=O)NC(C)CN(C)C (stereo not drawn) [Example A60, 4-[4-Amino-5-(2,6-difluoro-benzoyl)-thiazol-2-ylamino]-N-(2RS-dimethylamino-1-methyl-ethyl)-2-methoxy-benzamide] |  |  |  |  |  |  |  | IC50 [1]: 200 nM; Ki [2]: 31 nM; Ki [3]: 91 nM
CCOC(=O)C1CCN(C(=O)c2ccc(Nc3nc(N)c(C(=O)c4c(F)cccc4F)s3)cc2)CC1 [Example G210] |  |  |  | 15% | 45% | 20% | 13% | 
